The results in this text go back to US20170176436A1, “METHODS (AMACR)” (UNIVERSITY OF BATH, priority 2014, published 2017).

In data set [1] the target is T1, Human AMACR (Homo sapiens, UniProt Q9UHK6).
T1 construct: inferred only from purification by metal-chelate chromatography; made in house; host or cells: E. coli Rosetta2 (DE3)
T1 sequence (Q9UHK6 1-382): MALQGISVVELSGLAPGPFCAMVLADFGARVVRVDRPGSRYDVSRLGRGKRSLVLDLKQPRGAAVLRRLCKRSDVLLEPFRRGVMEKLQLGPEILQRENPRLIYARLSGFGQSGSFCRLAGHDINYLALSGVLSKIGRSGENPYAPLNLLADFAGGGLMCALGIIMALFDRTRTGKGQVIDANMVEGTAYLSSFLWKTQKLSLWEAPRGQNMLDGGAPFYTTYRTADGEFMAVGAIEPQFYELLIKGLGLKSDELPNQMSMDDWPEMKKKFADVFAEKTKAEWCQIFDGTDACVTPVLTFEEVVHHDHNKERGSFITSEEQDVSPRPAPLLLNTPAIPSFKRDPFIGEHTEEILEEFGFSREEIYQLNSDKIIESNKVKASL
Description: AMACR chiral inversion reaction of a known substrate, 1H NMR assay. The class given is biochemical. How it is done: (§1) Human AMACR was expressed in E. coli Rosetta2 (DE3) at 22° C. overnight shaking at 220 r.p.m.^1 Cells (˜2 g) were lysed using the ‘one shot’ in ˜30 mL buffer supplemented with 250u benzonase (Novagen) and stirred with 1.5% (w/v) N-lauroyl-sarcosine at 4° C. for 1 hour. Following centrifugation, enzyme was purified by metal-chelate chromatography, dialysed into 20 mM NaH2PO4—NaOH, pH 7.4 and stored at −80° C.^1,2
(§2) Assays were conducted in buffer containing ^2H2O and 100 μM acyl-CoA substrate as previously described, with negative controls contain heat-inactivated enzyme. ±-Fenoprofenoyl-CoA or 2-methyldecanoyl-CoA was used as known substrates.^1,2 Assays were quenched by heating to 50° C. for 10 minutes before ^1H NMR analysis (500.13 MHz). Conversion of substrates was quantified by conversion of the 2-Me doublet at ca. 1.0 p.p.m. into a singlet.^1,2 Kinetic data was analysed as previously described^1,2 and parameters were obtained using SigmaPlot 12 with the Direct Linear Plot^3,4 and non-linear fitting of Michaelis-Menten parameters.

In data set [2] the target is T2, human recombinant AMACR 1A (Homo sapiens, UniProt Q9UHK6).
T2 construct: made in house
T2 sequence (Q9UHK6 1-382): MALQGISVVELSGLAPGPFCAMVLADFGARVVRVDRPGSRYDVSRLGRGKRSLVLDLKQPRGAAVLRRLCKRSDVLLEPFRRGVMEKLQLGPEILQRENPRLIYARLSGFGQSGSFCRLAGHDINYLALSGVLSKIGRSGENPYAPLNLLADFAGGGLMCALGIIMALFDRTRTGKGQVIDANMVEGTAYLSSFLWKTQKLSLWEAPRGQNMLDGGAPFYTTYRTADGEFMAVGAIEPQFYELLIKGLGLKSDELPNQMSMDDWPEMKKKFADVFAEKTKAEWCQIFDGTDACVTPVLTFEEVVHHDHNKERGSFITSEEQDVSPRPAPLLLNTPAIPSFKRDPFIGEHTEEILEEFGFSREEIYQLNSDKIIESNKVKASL
Description: Measurement of inhibitor potency using the elimination assay (1H NMR). The data set is classed as biochemical. How it is done:
Assays were performed as previously described in a total volume of […] in the presence of ^2H2O. using human recombinant AMACR 1A^2. In the following table inhibitor at 100 μM was incubated with enzyme for 10 minutes at room temperature. The reaction was initiated by addition of a stock solution of substrate (2S,3R-3-fluoro-2-methyldecanoyl-CoA) to a final concentration of 100 μM, followed by incubation at 30° C. for 1 hour. The reaction was terminated by heating at ca. 55° C. for 10 minutes. The cooled reaction mixture analysed by ^1H NMR by the appearance of the unsaturated product peak at ca. 1.75 ppm and comparison to the residual substrate peak at 1.1 ppm.^5 Assays were compared to a positive control (no inhibitor) and conversion levels are corrected for levels in negative controls (boiled enzyme). The data in the table is the average of two […] repeats.
Similar assays were also conducted where inhibitor and substrate were added to the enzyme simultaneously.

In data set [3] the target is T2, human recombinant AMACR 1A. Description: Colorimetric assay for AMACR, 96-well plate, absorbance at 354 nm. The data set is classed as biochemical. How it is done: Based on this elimination reaction, a colorimetric assay was developed. […] 2,4-dintrophenol was chosen as the leaving group as the pKa of the acid is similar to that of HF.
The elimination reaction is shown in Reaction Scheme 2 below:
The above assay was transferred into a 96-well plate format with the extent of reaction monitored by absorbance at 354 nm. The reaction was carried out in Na2HPO4—NaOH, pH 7.4 in a total volume of 100 μL containing 8.05 μg (0.17 nmoles) of human recombinant AMACR 1A.
The kinetics assay was carried out in a 96 well plate. Substrate stock solutions (at 2× the final concentration) were prepared by serial dilution in a total volume of 150 μL in phosphate buffer (as already described). This solution (50 μL) was transferred into […], such that three identical wells were prepared. The reaction was initiated by adding a 2× stock solution of enzyme (50 μL per well) to the substrate, mixing and measuring the change in absorbance at 354 nm over a 15 minute time course, with data collected every 60 seconds. The reaction was conducted at ambient room temperature, ca. 25° C. The final concentrations of substrate (in the assay, after adding the enzyme) were: 256.3, 180.9, 113.9, 75.9, 50.6, 33.8, 22.5, 15.0 μM.
Rates were determined by plotting the absorbance vs. time in Microsoft Excel. The initial rate was used before the rate starts to reduce due to substrate depletion and other reasons. The rate in absorbance units/min was derived by fitting a straight line to the points and determining the slope from the y=mx+c equation.
The data was converted into nmol/min/mg using the extinction coefficient,^8 the pathlength (calculated by the plate-reader based on the volume of the reaction; 0.33 cm), and the amount of enzyme determined by UV-visible spectroscopy.^1 Kinetic constants were derived using SigmaPlot 12 with the enzyme kinetics macro function. Fitting assumed a single substrate per active site, two active sites per dimer (one active sites per protein molecule), with three repeats of each rate. […] Kinetic data was also calculated using the Direct Linear Plot^3,4 A similar method (with a different enzyme) has also been described.^10

In data set [4] the target is T1, Human AMACR. Description: AMACR-catalysed elimination reaction of 3-fluoro-2-methylacyl-CoA esters, monitored by 1H and 19F NMR. The class given is biochemical. The procedure: as §1, §2
(§3) The 3S and 3R stereoisomers of the 3-fluoro-2-methylacyl-CoA esters were then incubated with AMACR and the reaction was monitored by ^1H and ^19F NMR. Interconversion of 3S and 3R by chiral inversion was expected to be observed. […] The synthetic product compound was produced from the E-acid, which had the alkene proton at 6.92 p.p.m., whilst the Z-isomer has an alkene proton at 6.09 p.p.m. in the ^1H NMR spectrum. The presence of fluoride was observed as a characteristic signal at −120 p.p.m. in the ^19F spectrum. Increasing amounts of the unsaturated product compound and inorganic fluoride were observed upon incubation of either 3S or 3R with AMACR for longer times. This reaction was not observed in negative controls containing heat-inactivated enzyme. […] This observed irreversibility of the elimination reaction probably results from the high levels of hydration of the fluoride anion.

Substrate in data set [5]: CCCCCCC[C@@H](F)[C@@H](C)C(=O)SCCNC(=O)CCNC(=O)[C@H](O)C(C)(C)COP(=O)(O)OP(=O)(O)OC[C@H]1O[C@@H](n2cnc3c(N)ncnc32)[C@H](O)[C@@H]1OP(=O)(O)O
Described as above. The class given is biochemical, human. To be noted: other: elimination reaction; Direct Linear Plot; 1H NMR; pH 7.4. How it is done: as §1, §2, §3

Substrate in data set [6]: CCCCCCCCC(C)C(=O)SCCNC(=O)CCNC(=O)[C@H](O)C(C)(C)COP(=O)(O)OP(=O)(O)OC[C@H]1O[C@@H](n2cnc3c(N)ncnc32)[C@H](O)[C@@H]1OP(=O)(O)O
Description: AMACR chiral inversion reaction of a known substrate, 1H NMR assay. The data set is classed as biochemical, human. The note with it: other: chiral inversion reaction; pH 7.4. How it is done: as §1, §2

[7] abbreviates: inhibitor and substrate added to the enzyme simultaneously, enzyme 0.12 mg/mL.
The mark [8] stands for this setting: inhibitor 100 μM incubated with enzyme 10 minutes at room temperature before substrate, enzyme 0.06 mg/mL, substrate 2S,3R-3-fluoro-2-methyldecanoyl-CoA 100 μM, 30° C. 1 hour.
The mark [9] stands for this setting: elimination of 2,4-dinitrophenoxide, pH 7.4, ca. 25° C., absorbance 354 nm.
[10] abbreviates: elimination reaction, Direct Linear Plot, 1H NMR.

In general, Vmax refers to the top rate of the reaction or transport when substrate is in excess. Turning to `CCCCCCCCC(C)C(=O)SCCNC(=O)CCNC(=O)[C@H](O)C(C)(C)COP(=O)(O)OP(=O)(O)OC[C@H]1O[C@@H](n2cnc3c(N)ncnc32)[C@H](O)[C@@H]1OP(=O)(O)O` (stereo partly shown) [S-2-methyldecanoyl-CoA], the Vmax at Human AMACR [1] is 39.3 nmol·min^−1·mg^−1 polypeptide. In addition, the “Average reduction in conversion” value in data set [2] (setting [7]) was 7.2%.
In the case of `CCCCCCCC[C@@H](C)C(=O)SCCNC(=O)CCNC(=O)[C@H](O)C(C)(C)COP(=O)(O)OP(=O)(O)OC[C@H]1O[C@@H](n2cnc3c(N)ncnc32)[C@H](O)[C@@H]1OP(=O)(O)O` [R-2-methyldecanoyl-CoA], in data set [2] (setting [7]), the “Average reduction in conversion” value is 13.6%.
Turning to `CC(C)Cc1ccc(C(C)C(=O)SCCNC(=O)CCNC(=O)C(O)C(C)(C)COP(=O)(O)OP(=O)(O)OCC2OC(n3cnc4c(N)ncnc43)C(O)C2OP(=O)(O)O)cc1` (stereo not shown) [Ibuprofenoyl-CoA], the “Average reduction in conversion” value in data set [2] (setting [8]) amounted to 14.5%; in data set [2] (setting [7]) it was 11%.
For `CC(C(=O)SCCNC(=O)CCNC(=O)C(O)C(C)(C)COP(=O)(O)OP(=O)(O)OCC1OC(n2cnc3c(N)ncnc32)C(O)C1OP(=O)(O)O)c1cccc(C(=O)c2ccccc2)c1` (stereo not shown) [Ketoprofenoyl-CoA], the “Average reduction in conversion” value in data set [2] (setting [8]) was 4.5%.
The term Km denotes the concentration of substrate that gives half-maximal velocity. As a reminder, the kcat is the maximal rate divided by the concentration of active sites. As to `CC(COc1ccc([N+](=O)[O-])cc1[N+](=O)[O-])C(=O)SCCNC(=O)CCNC(=O)[C@H](O)C(C)(C)COP(=O)(O)OP(=O)(O)OC[C@H]1O[C@@H](n2cnc3c(N)ncnc32)[C@H](O)[C@@H]1OP(=O)(O)O` (mixture of isomers) [colorimetric substrate, racemic 3-(2,4-dinitrophenoxy)-2-methyl-propanoyl-CoA], the “conversion efficiency relative to anti-3-fluoro-2-methyldecanoyl-CoA, as judged by kcat/Km” value in data set [3] is recorded as around 35%. Further, the “colour produced on incubation with active AMACR” value in data set [3] (absent in negative controls using heat-inactivated enzyme) is “intense yellow colour”. In data set [3] (setting [9]), the Km came out at 18 µM, the Vmax was found to be 27.61 nmol/min/mg and the kcat amounted to 0.023 s⁻¹.
In the case of `CC(C(=O)SCCNC(=O)CCNC(=O)C(O)C(C)(C)COP(=O)(O)OP(=O)(O)OCC1OC(n2cnc3c(N)ncnc32)C(O)C1OP(=O)(O)O)c1ccc(-c2ccccc2)c(F)c1` (stereo not shown) [Flurbiprofenoyl-CoA], in data set [2] (setting [8]), the “Average reduction in conversion” value was determined as 3.5%.
Turning to `CCCCCCC[C@@H](F)[C@H](C)C(=O)SCCNC(=O)CCNC(=O)[C@H](O)C(C)(C)COP(=O)(O)OP(=O)(O)OC[C@H]1O[C@@H](n2cnc3c(N)ncnc32)[C@H](O)[C@@H]1OP(=O)(O)O` [Compound 5, (2S,3R)-3-Fluoro-2-methyldecanoic-CoA], on Human AMACR [4] (setting [10]), the Km stood at 21 µM, the Vmax is given as 96.5 nmol·min^−1·mg polypeptide^−1 and the kcat stood at 0.0758 s⁻¹.
For the molecule `COc1ccc2cc(C(C)C(=O)SCCNC(=O)CCNC(=O)C(O)C(C)(C)COP(=O)(O)OP(=O)(O)OCC3OC(n4cnc5c(N)ncnc54)C(O)C3OP(=O)(O)O)ccc2c1` (stereo not shown) [Naproxenoyl-CoA], the “Average reduction in conversion” value in data set [2] (setting [8]) came out at 4.7%.
`CC(C(=O)SCCNC(=O)CCNC(=O)C(O)C(C)(C)COP(=O)(O)OP(=O)(O)OCC1OC(n2cnc3c(N)ncnc32)C(O)C1OP(=O)(O)O)c1cccc(Oc2ccccc2)c1` (stereo not shown) [Fenoprofenoyl-CoA]: the “Average reduction in conversion” value in data set [2] (setting [8]) turned out to be 14.1%.
As to `CCCCCCC[C@@H](F)[C@@H](C)C(=O)SCCNC(=O)CCNC(=O)[C@H](O)C(C)(C)COP(=O)(O)OP(=O)(O)OC[C@H]1O[C@@H](n2cnc3c(N)ncnc32)[C@H](O)[C@@H]1OP(=O)(O)O` [Compound 11, (2R,3R)-3-Fluoro-2-methyldecanoyl-CoA], on Human AMACR [4] (setting [10]), the Vmax is given as ~50.6 nmol·min^−1·mg polypeptide^−1. Moreover, on Human AMACR [4] (negative controls with heat-inactivated enzyme), the “background conversion in negative controls (non-enzymatic elimination)” value is given as “significant background conversion”.

B1: Human AMACR (Homo sapiens) (protein)
chain: MALQGISVVELSGLAPGPFCAMVLADFGARVVRVDRPGSRYDVSRLGRGKRSLVLDLKQPRGAAVLRRLCKRSDVLLEPFRRGVMEKLQLGPEILQRENPRLIYARLSGFGQSGSFCRLAGHDINYLALSGVLSKIGRSGENPYAPLNLLADFAGGGLMCALGIIMALFDRTRTGKGQVIDANMVEGTAYLSSFLWKTQKLSLWEAPRGQNMLDGGAPFYTTYRTADGEFMAVGAIEPQFYELLIKGLGLKSDELPNQMSMDDWPEMKKKFADVFAEKTKAEWCQIFDGTDACVTPVLTFEEVVHHDHNKERGSFITSEEQDVSPRPAPLLLNTPAIPSFKRDPFIGEHTEEILEEFGFSREEIYQLNSDKIIESNKVKASL
notes: inferred only from purification by metal-chelate chromatography; made in house; host or cells: E. coli Rosetta2 (DE3)
Usually kcat/Km stands for the turnover number divided by the Michaelis constant. For B1, in data set [5], the Km stood at 40 µM, the kcat came to 0.0397 s⁻¹ and the kcat/Km turned out to be 993 M⁻¹ s⁻¹. Besides, in data set [6], the Km is 277 µM, the kcat was found to be 0.0310 s⁻¹ and the kcat/Km was found to be 112 M⁻¹ s⁻¹.
